Paper PMC6964649, “Light-controllable dithienylethene-modified cyclic peptides: photoswitching the in vivo toxicity in zebrafish embryos” (Beilstein Journal of Organic Chemistry, 2020)
Starred links: 1 amine or outer side, 2 acyl side, 3 side chain; linkers in the order of their positions; H or OH if unused. Positions of bridges follow the written chain, without caps; N, C: chain ends. Non-standard residues stand in square brackets, D forms with d. Residues, ends and D or L forms follow the SMILES beside them. *: point of attachment. X2 = Cc1sc(C(=O)[C@@H]2CCCN2[*:2])cc1C1=C(c2cc(C(=O)[*:1])sc2C)CCC1; Leu(3R-OH) = CC(C)[C@@H](O)[C@H](N)C(=O)O; X1 = CCCCN([C@@H](CC(C)C)C(=O)[*:2])[*:1]; NMeL = CN[C@@H](CC(C)C)C(=O)O; Orn = NCCC[C@H](N)C(=O)O; NHiPr = CC(C)N*

Columns and labels:
[1] = system: D. rerio embryos; assay: D. rerio embryotoxicity assay, direct application of ring-open photoform; type: in vivo, Danio rerio; conditions: direct application of 1 or ring-open photoform, zebrafish embryos at 3 dpf, final DMSO 0.2%, ambient light, value ± STD; for LD50 (open)^1h: 1 h incubation, 12–15 or 18–20 embryos; for LD50 (open)^3h: 3 h incubation; for LD50 (open)^24h: 24 h incubation
Procedure: (§1) To establish the assay for screening the photoswitchable peptides, we first studied the toxicity of our prototype 2 by varying the assay conditions. The parent peptide GS 1 was used as a control. […] We measured the doses causing the death of 50% embryos (LD50). We tested two different assay variations: in one version, the LD50(open) was determined after direct application of 1 or of the ring-open form of 2. In the other variant, the photoswitchable peptide was applied in the ring-closed photoform in the darkness, its LD50(closed) was recorded, and then in situ illumination (“photoactivation”) was applied to switch into the ring-open photoform and obtain the respective LD50(opened) values (see Figure 2 for the study design and the killing curves).
(§2) Figure 2 Two versions of the D. rerio embryotoxicity assay for DAE-modified peptides: timelines, peptide photostates, ages of larvae, and definitions of the measured characteristics. (A) Direct application of the non-photoswitchable parent GS 1 or of the ring-open photoform of our prototype 2, and the corresponding killing curves for 1 (C, top, black) and 2 (C, bottom, red). (B) “Photoactivation” assay: initial application of the ring-closed photoform, incubation in darkness, followed by in situ photoconversion into the ring-open(ed) photoform, with the corresponding killing curves for 1 (D, top) and 2 (D, bottom, green for ring-closed, red for ring-open isomers). The latter panel illustrates the “phototherapeutic safety window” (green arrow) as the difference in toxicity between the ring-closed and the ring-open isomers upon photoactivation.
(§3) Each time, 12–15 or 18–20 zebrafish embryos at 3 dpf were treated by applying the corresponding peptide dissolved in dimethyl sulfoxide (final dimethyl sulfoxide concentration was 0.2%). Double-concentrated peptide stock solutions (64–512 µg/mL) were prepared by weighing lyophilized peptides, dissolving in 10% dimethyl sulfoxide and constructing two-fold dilution series with ten–eleven dilution steps. In the photoconversion experiments, in order to prevent spontaneous photoswitching of the ring-closed peptides by vis light, zebrafish embryos and peptides were kept in the dark before the first readout, and the vials were sealed to avoid evaporation of the embryonic medium (E3) at prolonged incubation times. After the first screen, without exchanging any solution, the vials with embryos and ring-closed photoforms were exposed to intense illumination for 10 min (LUMATEC Superlite 410 light source, λ = 570 nm, irradiance approximately 20 mW/cm^2). Mortality was then determined under ambient light conditions at 1 h and 24 h after the illumination procedure.

[2] = observed water solubility and aggregation; type: physicochemical; conditions: ring-open form; observation in words
Text: We have also analyzed the correlation between the empirical low-pH hydrophobicity of the peptides (as assessed from the retention times in reversed-phase HPLC) and toxicity against zebrafish embryos. Independent on the photoisomeric state and the type of toxicity assay, decreasing polarity of the peptides is accompanied by an increase in toxicity against zebrafish embryos (compare Figure 3A and 3B). Within the different series of peptides (the series are marked with different colors in Figure 3 for clarity) we get almost linear toxicity–hydrophobicity correlations in most cases, and all the outliers are readily explainable.

[3] = system: D. rerio embryos; assay: D. rerio embryotoxicity "photoactivation" assay (ring-closed photoform in darkness, then in situ photoconversion); type: in vivo, Danio rerio; conditions: for LD50 (opened)^1h / LD50 (opened)^24h: after 24 h with ring-closed form in dark, in situ illumination 10 min, λ = 570 nm, approx. 20 mW/cm^2; for LD50 (opened)^1h: mortality 1 h after illumination, embryos 4 dpf; for LD50 (opened)^1h / LD50 (opened)^24h / LD50 (closed)^24h: value ± STD; for LD50 (opened)^24h: mortality 24 h after illumination, embryos 5 dpf at readout; for LD50(closed)^24h/LD50(open)^24h ratio: phototherapeutic safety window, ring-closed 24 h LD50 (dark) divided by ring-open 24 h LD50 (direct application); for LD50 (closed)^24h: ring-closed photoform applied to embryos at 3 dpf, 24 h in the dark, sealed vials, E3 medium, 0.2% DMSO
Procedure: as §1, §2, §3

SMILES | LD50 (open)^1h [1] [µg/mL] | LD50 (open)^3h [1] [µg/mL] | LD50 (open)^24h [1] [µg/mL] | water solubility and aggregation [2] | LD50 (opened)^1h [3] [µg/mL] | LD50 (opened)^24h [3] [µg/mL] | LD50(closed)^24h/LD50(open)^24h ratio [3] | LD50 (closed)^24h [3] [µg/mL]
CCCCN1C(=O)[C@@H](Cc2ccccc2)NC(=O)[C@H](CC(C)C)NC(=O)[C@H](CCCN)NC(=O)[C@H]([C@@H](C)CC)NC(=O)c2cc(c(C)s2)C2=C(CCC2)c2cc(sc2C)C(=O)[C@@H]2CCCN2C(=O)[C@H](CC(C)C)NC(=O)[C@H](CCCN)NC(=O)[C@H]([C@@H](C)CC)NC(=O)[C@@H]1CC(C)C [Peptide 11] (I[Orn]L[dF][X1]I[Orn]L; linker N-C via X2) | 3.0 ± 1.8 | 2.4 ± 0.7 | 1.6 ± 0.1 | very low water solubility and tendency to aggregate | 4.0 ± 0.3 | 3.0 ± 1.0 | 2.8 | 4.4 ± 0.2
Cc1sc2cc1C1=C(CCC1)c1cc(sc1C)C(=O)[C@@H]1CCCN1C(=O)[C@H](C(C)C)NC(=O)[C@H](CCCN)NC(=O)[C@H](C(C)C)NC(=O)[C@@H]1CCCN1C(=O)[C@@H](Cc1ccccc1)NC(=O)[C@H](C(C)C)NC(=O)[C@H](CCCN)NC(=O)[C@H]([C@H](O)C(C)C)NC2=O [Peptide 12] ([Leu(3R-OH)][Orn]V[dF]PV[Orn]V; linker N-C via X2) | 9.2 ± 1.1 | 6.7 ± 0.4 | 3.6 ± 0.5 |  | 6.2 ± 0.0 | 2.1 ± 1.0 | 21.4 | 77.0 ± 19.4
Cc1sc2cc1C1=C(CCC1)c1cc(sc1C)C(=O)[C@@H]1CCCN1C(=O)[C@H](CC(C)C)NC(=O)[C@H](CCCCN)NC(=O)[C@H](C(C)C)NC(=O)[C@H](CCCCN)NC(=O)[C@H](CC(C)C)NC(=O)[C@@H]1CCCN1C(=O)[C@@H](Cc1ccccc1)NC(=O)[C@H](C(C)C)NC(=O)[C@H](CCCCN)NC(=O)[C@H](CC(C)C)NC(=O)[C@H](CCCCN)NC(=O)[C@H](C(C)C)NC2=O [Peptide 16] (VKLKV[dF]PLKVKL; linker N-C via X2) | 3.1 ± 1.0 | 3.1 ± 1.0 | 1.6 ± 0.0 |  | 5.6 ± 0.5 | 5.2 ± 0.5 | 3.8 | 6.0 ± 0.1
Cc1sc2cc1C1=C(CCC1)c1cc(sc1C)C(=O)[C@@H]1CCCN1C(=O)[C@H](C(C)C)NC(=O)[C@H](CCCN)NC(=O)[C@H](C(C)C)NC(=O)[C@@H]1CCCN1C(=O)[C@@H](Cc1ccccc1)NC(=O)[C@H](C(C)C)NC(=O)[C@H](CCCN)NC(=O)[C@H](CC(=O)NC(C)C)NC2=O [Peptide 7] (D(NHiPr)[Orn]V[dF]PV[Orn]V; linker N-C via X2) | 15.9 ± 4.3 | 8.7 ± 9.1 | 5.8 ± 0.4 |  | 18.2 ± 4.6 | 3.0 ± 2.5 | 45.9 | 
CC[C@H](C)[C@@H]1NC(=O)c2cc(c(C)s2)C2=C(CCC2)c2cc(sc2C)C(=O)[C@@H]2CCCN2C(=O)[C@H]([C@@H](C)CC)NC(=O)[C@H](CCCN)NC(=O)[C@H](CC(C)C)NC(=O)[C@H](CC(C)C)N(C)C(=O)[C@@H](Cc2ccccc2)NC(=O)[C@H]([C@@H](C)CC)NC(=O)[C@H](CCCN)NC1=O [Peptide 10] (I[Orn]I[dF][NMeL]L[Orn]I; linker N-C via X2) | 1.3 ± 1.5 | 1.0 ± 0.6 | 1.0 ± 0.6 |  | 2.2 ± 1.0 | 1.3 ± 1.5 | 9.5 | 9.5 ± 0.1
Cc1sc2cc1C1=C(CCC1)c1cc(sc1C)C(=O)[C@@H]1CCCN1C(=O)[C@H](CC(C)C)NC(=O)[C@H](CCCN)NC(=O)[C@H](C(C)C)NC(=O)[C@@H]1CCCN1C(=O)[C@@H](Cc1ccccc1)NC(=O)[C@H](CC(C)C)NC(=O)[C@H](CCCN)NC(=O)[C@H](CCCN)NC2=O [Peptide 5] | 4.8 ± 2.2 | 2.8 ± 1.9 | 3.3 ± 0.7 |  | 8.1 ± 1.0 | 5.3 ± 0.5 | 2.5 | 8.1 ± 1.0
